# Patent US10757937B2, “Sulfonamides that activate ABA receptors” (The Regents of the University of California, priority 2014, dated 2020)
# Where two headings read alike, the source gives them in different places.
# How the values were obtained:
# PYL2 = biological target: T1, PYL2 (Arabidopsis thaliana, UniProt O80992); assay: receptor-mediated PP2C (HAB1) inhibition in vitro assay; assay type: biochemical; settings: for remaining activity at 50 µM: 50 uM of the test compound
# T1 construct: 6X-His; made in house; host or cells: E. coli BL21[DE3]pLysS
# T1 sequence (O80992 1-190): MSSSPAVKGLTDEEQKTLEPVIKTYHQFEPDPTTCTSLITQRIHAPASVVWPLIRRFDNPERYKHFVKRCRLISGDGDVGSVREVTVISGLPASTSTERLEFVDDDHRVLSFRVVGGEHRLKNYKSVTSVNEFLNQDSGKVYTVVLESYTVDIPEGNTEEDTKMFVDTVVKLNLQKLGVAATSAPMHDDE
# T1 sequence (Q9CAJ0 23-511 partner): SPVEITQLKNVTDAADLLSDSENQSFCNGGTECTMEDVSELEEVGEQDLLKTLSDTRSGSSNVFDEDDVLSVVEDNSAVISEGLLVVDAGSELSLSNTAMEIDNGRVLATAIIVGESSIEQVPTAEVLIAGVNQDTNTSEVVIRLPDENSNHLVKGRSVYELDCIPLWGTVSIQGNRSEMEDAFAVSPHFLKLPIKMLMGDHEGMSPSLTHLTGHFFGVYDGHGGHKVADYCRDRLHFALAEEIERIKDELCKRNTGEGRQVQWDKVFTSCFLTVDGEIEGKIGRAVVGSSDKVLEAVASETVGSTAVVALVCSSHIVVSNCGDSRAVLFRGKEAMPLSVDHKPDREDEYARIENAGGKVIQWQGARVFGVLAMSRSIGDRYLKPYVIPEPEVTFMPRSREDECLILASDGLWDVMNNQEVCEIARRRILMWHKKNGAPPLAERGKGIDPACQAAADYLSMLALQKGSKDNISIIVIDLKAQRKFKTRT
# How it was run: (§1)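 Compounds, tested at 25 μM or 50 uM with ABA at 10 uM, were incubated with recombinant receptor and 50 nM GST-HAB1 (2:1 ratio) in MnCl2-containing Tris-OAc buffer, pH 7.9. Phosphatase activity was followed by 4-methylumbelliferyl-phosphate fluorescence.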
# PYL9 = biological target: T2, PYL9 (Arabidopsis thaliana, UniProt Q84MC7); assay: as above; assay type: biochemical; settings: for remaining activity at 50 µM: 50 uM of the test compound
# T2 construct: 6X-His; made in house; host or cells: E. coli BL21[DE3]pLysS
# T2 sequence (Q84MC7 1-187): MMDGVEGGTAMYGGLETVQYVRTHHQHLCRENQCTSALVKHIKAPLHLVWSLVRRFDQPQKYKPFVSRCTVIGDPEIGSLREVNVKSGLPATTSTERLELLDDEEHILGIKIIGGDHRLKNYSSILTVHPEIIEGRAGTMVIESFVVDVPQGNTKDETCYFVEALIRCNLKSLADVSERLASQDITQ
# T2 sequence (Q9CAJ0 23-511 partner): T1 sequence (Q9CAJ0 23-511 partner)
# How it was run: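 Fluorogenic readout: 4-methylumbelliferyl-phosphate hydrolysis by 50 nM GST-HAB1 plus 2:1 His-receptor; Tris-OAc pH 7.9, NaCl, 1 mM MnCl2, β-ME. Compounds at 25 μM or 50 uM single dose; IC50 from dose curves for selected compounds.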
# PYR1 = biological target: T3, PYR1 (Arabidopsis thaliana, UniProt O49686); assay: as above; assay type: biochemical; settings: for remaining activity at 50 µM: 50 uM of the test compound
# T3 construct: 6X-His; made in house; host or cells: E. coli BL21[DE3]pLysS
# T3 sequence (O49686 1-191): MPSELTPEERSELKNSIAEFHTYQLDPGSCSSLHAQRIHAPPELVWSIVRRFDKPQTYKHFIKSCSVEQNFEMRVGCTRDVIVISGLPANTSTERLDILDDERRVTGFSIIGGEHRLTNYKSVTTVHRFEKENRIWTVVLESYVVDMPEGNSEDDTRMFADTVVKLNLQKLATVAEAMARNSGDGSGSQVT
# T3 sequence (Q9CAJ0 23-511 partner): T1 sequence (Q9CAJ0 23-511 partner)
# How it was run: as §1
# [1] = tested on: Arabidopsis seed germination and hypocotyl growth; assay: Arabidopsis seed germination and hypocotyl growth; assay type: in vivo; settings: for minimal effective concentration: Arabidopsis thaliana
# How it was run: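 Wild-type seeds germinated on ½× Murashige and Skoog medium with compound at 10 and 50 uM, or in a later series at 1, 5, 10, 25 and 50 uM. Reported value is the lowest tested concentration that inhibited germination or hypocotyl growth in wells where seeds germinated.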
# [2] = Table XII-B, calculated from dose curves, read-out: PP2C Activity (IC50 in uM) PYL2
# [3] = Table XII-B, calculated from dose curves, read-out: PP2C Activity (IC50 in uM) PYL9
# [4] = Table XII-B, calculated from dose curves, read-out: PP2C Activity (IC50 in uM) PYR1
# [5] = Germination Effects III, tested at 1, 5, 10, 25 and 50 uM, lowest concentration inhibiting hypocotyl growth, — = none, read-out: Growth Inhibition
# [6] = Germination Effects III, tested at 1, 5, 10, 25 and 50 uM, lowest inhibiting concentration, — = none, read-out: Germination Inhibition
SMILES,"IC50 (PYL2; Table VII, read-out: PP2C Dose Curves PYL2 (IC50)) [µM]","IC50 (PYL9; Table VII, read-out: PP2C Dose Curves PYL9 (IC50)) [µM]","remaining activity at 25 µM (PYL9; compound at 25 μM, control without agonist = 100%) [%]","IC50 (PYR1; Table VII, read-out: PP2C Dose Curves PYR1 (IC50)) [µM]","minimal effective concentration ([1]; Table VIII, tested at 10 or 50 μM, ABA at 1 μM, lowest inhibiting concentration, − = none, read-out: Germination Inhibition) [µM]","Germination Inhibition ([1]; Germination Inhibition II, tested at 10 and 50 uM, lowest of the two concentrations that inhibited, − = none) [µM]",remaining activity at 50 µM (PYL2) [%],IC50 (PYL2; [2]) [µM],remaining activity at 50 µM (PYL9) [%],IC50 (PYL9; [3]) [µM],remaining activity at 50 µM (PYR1) [%],IC50 (PYR1; [4]) [µM],"minimal effective concentration [1, 5] [µM]","minimal effective concentration [1, 6] [µM]"
CCC(CC)(C(=O)NS(=O)(=O)Cc1ccc([N+](=O)[O-])cc1)c1ccccc1 [Compound 19],> 50,3.9,15,> 50,10,10,–,–,–,–,–,–,–,–
"CC(C)COC(=O)NS(=O)(=O)Cc1ccc(C#N)cc1 [Compound 65, 2-Methylpropyl N-[(4-cyanophenyl)methanesulfonyl]carbamate]",–,–,–,–,–,–,95.2,> 50,18.6,6.5,96.2,> 50,50,–
"CC1CCC(C(=O)NS(=O)(=O)Cc2ccc(C#N)cc2)(c2ccc(F)cc2)CC1 (stereo not shown) [Compound 67, N-[(4-Cyanophenyl)methanesulfonyl]-1-(4-fluorophenyl)-4-methylcyclohexane-1-carboxamide]",–,–,–,–,–,–,93,> 50,8,2.13,99.6,> 50,10,25
"CC1(C)CCC(C(=O)NS(=O)(=O)Cc2ccc(C#N)cc2)(c2ccc(F)cc2)CC1 [Compound 68, N-[(4-Cyanophenyl)methanesulfonyl]-1-(4-fluorophenyl)-4,4-dimethylcyclohexane-1-carboxamide]",–,–,–,–,–,–,94.8,> 50,22.6,17.7,94.4,> 50,10,25
"N#Cc1ccc(CS(=O)(=O)NC(=O)C2(c3ccccc3)CCCCC2)cc1 [Compound 69, N-[(4-Cyanophenyl)methanesulfonyl]-1-phenylcyclohexane-1-carboxamide]",–,–,–,–,–,–,96.2,> 50,5.8,0.135,96,> 50,1,5
"N#Cc1ccc(CS(=O)(=O)NC(=O)C(C2CCCCC2)C2CCCCC2)cc1 [Compound 73, N-[(4-Cyanophenyl)methanesulfonyl]-2,2-cyclohexylacetamide]",–,–,–,–,–,–,93.8,> 50,56.3,> 50,91.6,> 50,–,–
"N#Cc1ccc(CS(=O)(=O)NC(=O)C2(c3cccs3)CCCCC2)cc1 [Compound 75, N-[(4-Cyanophenyl)methanesulfonyl]-1-(thiophen-2-yl)cyclohexane-1-carboxamide]",–,–,–,–,–,–,89.5,> 50,6.9,0.083,96.1,> 50,5,5
"N#Cc1ccc(CS(=O)(=O)NC(=O)C2(c3ccsc3)CCCCC2)cc1 [Compound 78, N-[(4-Cyanophenyl)methanesulfonyl]-1-(thiophen-3-yl)cyclohexane-1-carboxamide]",–,–,–,–,–,–,81.2,> 50,6.1,0.038,90.9,> 50,2.5,2.5
"N#Cc1ccc(CS(=O)(=O)NC(=O)C2(c3ccsc3)CCCCC2)cc1Br [Compound 106, N-[(4-Cyano-3-bromophenyl)methanesulfonyl]-1-(thiophen-3-yl)cyclohexane-1-carboxamide]",–,–,–,–,–,–,29.6,33,5.4,0.014,98.9,> 50,1,1
